Laboratory results taken from patent publication US6849598B1, “Therapeutic compositions comprising bactericidal/permeability-increasing (BPI) protein products” (XOMA, priority 1995, dated 2005).
In brackets after ≈: the same amount, converted by molar mass. Where two headings read alike, the source gives them in different places.

Experiments:
P. aeruginosa = assay: Antibiotic susceptibility (MIC, Sensititre Trays) with rBPI21 poloxamer formulations; assay type: cell-based; details: for MIC: Pseudomonas aeruginosa, read-out: Minimum Inhibitory Concentration
A. baumannii = assay: Bactericidal activity in serum, broth or water, CFU after 4 hours (Example 2); assay type: cell-based
Description: The bactericidal activity of therapeutic compositions comprising BPI protein product and either poloxamer 333 (PLURONIC P103, BASF Wyandotte Corp.) or heat-treated PLURONIC P103, was evaluated against the clinical isolates of Example 1. Therapeutic compositions comprising 160 μg/mL rBPI21 and varying concentrations of either PLURONIC P103 or heat-treated PLURONIC P103 were formulated by diluting a 2 mg/mL solution of “non-formulated” rBPI21 (in buffer comprising 5 mM sodium citrate and 150 mM NaCl, without any surfactants) with the appropriate amounts of PLURONIC P103 or heat-treated PLURONIC P103 solutions. A “formulated” rBPI21 solution containing 2 mg/mL rBPI21, 0.2% poloxamer 188 (PLURONIC F68, BASF Wyandotte Corp.), 0.002% TWEEN 80 (polysorbate 80, ICI Americas, Wilmington, Del.), 5 mM sodium citrate and 150 mM NaCl was also tested for comparison. Poloxamer control solutions containing only 0.1% PLURONIC P103 or 0.1% heat-treated PLURONIC P103, and no rBPI21, were also prepared.
A 0.1% (w/v) solution of PLURONIC P103 was prepared by stirring the PLURONIC P103 in deionized water until dissolved and filtering the solution through a […] cellulose acetate polystyrene filter unit (Corning Inc., Corning, N.Y.). […]
The bacteria to be used in the assays were grown on tryptic soy agar (TSA) plates (Remel, Catalog #01-920, Lenexa, Kans.) for 24 hours. […] A bacterial stock emulsion was prepared by emulsifying bacterial colonies in sterile deionized water to approximately 2.2 to 3.8×10^8 colony forming units (CFU)/mL as measured by a Microscan® Turbidity Meter (Dade Microscan, West Sacramento, Calif.), and diluting further by 1:10 in water. […] Following incubation, the remaining colony forming units (CFU) in each well were counted at a 10^−2 dilution by plating 10 μL from each well onto TSA plates. The TSA plates were incubated at 37° C. for 24 hours and the number of bacterial colonies were visually counted. […]

[1] = CSMHB, 16 μg/mL rBPI21 with F68
[2] = CSMHB, 16 μg/mL rBPI21 with P103
[3] = CSMHB, 16 μg/mL rBPI21 with P104
[4] = CSMHB, 16 μg/mL rBPI21 with P105
[5] = CSMHB, 16 μg/mL rBPI21 with P123
[6] = Serum, 16 μg/mL rBPI21 with F68
[7] = Serum, 16 μg/mL rBPI21 with P103
[8] = Serum, 16 μg/mL rBPI21 with P104
[9] = Serum, 16 μg/mL rBPI21 with P105
[10] = Serum, 16 μg/mL rBPI21 with P123

With `CO/N=C(\C(=O)N[C@@H]1C(=O)N2C(C(=O)O)=CCS[C@H]12)c1csc(N)n1` [Ceftizoxime] the “susceptibility interpretation of MIC (superscript)” value (shortened to “susceptibility interpretation”) (P. aeruginosa; [1]) was “I”, the “susceptibility interpretation” value (P. aeruginosa; [2]) was “I” and the “susceptibility interpretation” value (P. aeruginosa; [3]) was “R”. For the same molecule, the “susceptibility interpretation” value (P. aeruginosa; [4]) was “I”, the “susceptibility interpretation” value (P. aeruginosa; [5]) was “R” and the “susceptibility interpretation” value (P. aeruginosa; CSMHB, Control (no BPI)) was “R”. For the same molecule, the MIC (P. aeruginosa; [1]) was 32 µg/mL (≈ 83.5 µM), the MIC (P. aeruginosa; [2]) was 16 µg/mL (≈ 41.7 µM) and the MIC (P. aeruginosa; [3]) was 128 µg/mL (≈ 334 µM). The MIC (P. aeruginosa; [4]) was 32 µg/mL (≈ 83.5 µM), the MIC (P. aeruginosa; [5]) was 128 µg/mL (≈ 334 µM) and the MIC (P. aeruginosa; CSMHB, Control (no BPI)) was greater than 128 µg/mL. For the same molecule, the MIC (P. aeruginosa; [6]) was greater than 128 µg/mL, the MIC (P. aeruginosa; [7]) was 16 µg/mL (≈ 41.7 µM) and the MIC (P. aeruginosa; [8]) was 128 µg/mL (≈ 334 µM). It also gave an MIC (P. aeruginosa; [9]) of 16 µg/mL (≈ 41.7 µM), an MIC (P. aeruginosa; [10]) of 16 µg/mL (≈ 41.7 µM) and an MIC (P. aeruginosa; Serum, Control (no BPI)) of 128 µg/mL (≈ 334 µM). For the same molecule, the “susceptibility interpretation” value (P. aeruginosa; [6]) was “R”, the “susceptibility interpretation” value (P. aeruginosa; [7]) was “I” and the “susceptibility interpretation” value (P. aeruginosa; [8]) was “R”. For the same molecule, the “susceptibility interpretation” value (P. aeruginosa; [9]) was “I”, the “susceptibility interpretation” value (P. aeruginosa; [10]) was “I” and the “susceptibility interpretation” value (P. aeruginosa; Serum, Control (no BPI)) was “R”.

`CO/N=C(\C(=O)N[C@@H]1C(=O)N2C(C(=O)O)=C(CSc3nc(=O)c(=O)[nH]n3C)CS[C@H]12)c1csc(N)n1` [Ceftriaxone] was tested, and the “susceptibility interpretation” value (P. aeruginosa; [1]) was “I”, the “susceptibility interpretation” value (P. aeruginosa; [2]) was “S” and the “susceptibility interpretation” value (P. aeruginosa; [3]) was “R”. For the same molecule, the “susceptibility interpretation” value (P. aeruginosa; [4]) was “I”, the “susceptibility interpretation” value (P. aeruginosa; [5]) was “R” and the “susceptibility interpretation” value (P. aeruginosa; CSMHB, Control (no BPI)) was “R”. For the same molecule, the MIC (P. aeruginosa; [1]) was 32 µg/mL (≈ 57.7 µM), the MIC (P. aeruginosa; [2]) was 8 µg/mL (≈ 14.4 µM) and the MIC (P. aeruginosa; [3]) was 128 µg/mL (≈ 231 µM). For the same molecule, the MIC (P. aeruginosa; [4]) was 32 µg/mL (≈ 57.7 µM), the MIC (P. aeruginosa; [5]) was 128 µg/mL (≈ 231 µM) and the MIC (P. aeruginosa; CSMHB, Control (no BPI)) was greater than 128 µg/mL. It also gave an MIC (P. aeruginosa; [6]) greater than 128 µg/mL, an MIC (P. aeruginosa; [7]) of 16 µg/mL (≈ 28.9 µM) and an MIC (P. aeruginosa; [8]) of 128 µg/mL (≈ 231 µM). The MIC (P. aeruginosa; [9]) was 16 µg/mL (≈ 28.9 µM), the MIC (P. aeruginosa; [10]) was 32 µg/mL (≈ 57.7 µM) and the MIC (P. aeruginosa; Serum, Control (no BPI)) was 128 µg/mL (≈ 231 µM). For the same molecule, the “susceptibility interpretation” value (P. aeruginosa; [6]) was “R”, the “susceptibility interpretation” value (P. aeruginosa; [7]) was “I” and the “susceptibility interpretation” value (P. aeruginosa; [8]) was “R”. The “susceptibility interpretation” value (P. aeruginosa; [9]) was “I”, the “susceptibility interpretation” value (P. aeruginosa; [10]) was “I” and the “susceptibility interpretation” value (P. aeruginosa; Serum, Control (no BPI)) was “R”.

In the case of `O=C(N[C@H](CO)[C@H](O)c1ccc([N+](=O)[O-])cc1)C(Cl)Cl` [Chloramphenicol], the “susceptibility interpretation” value (P. aeruginosa; [1]) is reported as “R”, the “susceptibility interpretation” value (P. aeruginosa; [2]) is reported as “I” and the “susceptibility interpretation” value (P. aeruginosa; [3]) is reported as “R”. The “susceptibility interpretation” value (P. aeruginosa; [4]) was “I”, the “susceptibility interpretation” value (P. aeruginosa; [5]) was “I” and the “susceptibility interpretation” value (P. aeruginosa; CSMHB, Control (no BPI)) was “R”. The MIC (P. aeruginosa; [1]) was greater than 32 µg/mL, the MIC (P. aeruginosa; [2]) was 16 µg/mL (≈ 49.5 µM) and the MIC (P. aeruginosa; [3]) was greater than 32 µg/mL. It also gave an MIC (P. aeruginosa; [4]) of 16 µg/mL (≈ 49.5 µM), an MIC (P. aeruginosa; [5]) of 16 µg/mL (≈ 49.5 µM) and an MIC (P. aeruginosa; CSMHB, Control (no BPI)) greater than 32 µg/mL. It also gave an MIC (P. aeruginosa; [6]) greater than 32 µg/mL, an MIC (P. aeruginosa; [7]) of 16 µg/mL (≈ 49.5 µM) and an MIC (P. aeruginosa; [8]) of 16 µg/mL (≈ 49.5 µM). For the same molecule, the MIC (P. aeruginosa; [9]) was 16 µg/mL (≈ 49.5 µM), the MIC (P. aeruginosa; [10]) was 16 µg/mL (≈ 49.5 µM) and the MIC (P. aeruginosa; Serum, Control (no BPI)) was greater than 32 µg/mL. The “susceptibility interpretation” value (P. aeruginosa; [6]) was “R”, the “susceptibility interpretation” value (P. aeruginosa; [7]) was “I” and the “susceptibility interpretation” value (P. aeruginosa; [8]) was “I”. For the same molecule, the “susceptibility interpretation” value (P. aeruginosa; [9]) was “I”, the “susceptibility interpretation” value (P. aeruginosa; [10]) was “I” and the “susceptibility interpretation” value (P. aeruginosa; Serum, Control (no BPI)) was “R”.

B1: rBPI21: expression product of DNA encoding amino acid 1 to approximately 193 or 199 of BPI holoprotein, cysteine 132 substituted with alanine (protein, UniProt P17213 32-224, looked up, variant C132A)
chain: VNPGVVVRISQKGLDYASQQGTAALQKELKRIKIPDYSDSFKIKHLGKGHYSFYSMDIREFQLPSSQISMVPNVGLKFSISNANIKISGKWKAQKRFLKMSGNFDLSIEGMSISADLKLGSNPTSGKPTITASSCSSHINSVHVHISKSKVGWLIQLFHKKIESALRNKMNSQVCEKVTNSVSSELQPYFQTL
For B1, the “colony forming units after 4 hours” value (A. baumannii; Broth, bacteria only >5000) was >5000 100's of CFUs, the “colony forming units after 4 hours” value (A. baumannii; Serum, bacteria only >2000) was >2000 100's of CFUs and the “colony forming units after 4 hours” value (A. baumannii; Water, bacteria only >2000) was 519 100's of CFUs.
